Experimental findings from ChEMBL document CHEMBL3244296, “3-Aryl- and 3-hydroxy-3-aryloctahydropyrido[2,1-c][1,4]oxazines. Synthesis, stereochemistry, and central nervous system pharmacological actions” (J Med Chem, 1978) are described below.

Calls of active or inactive are those of the source. The calls are words filed in the database; no cut-off is given here.

Data set [1] has as its system Mus musculus. Kind of data set: Reduction in spontaneous locomotor activity in mouse at 40 mg/kg, ip measured for 30 mins. The data set is classed as functional, organism-based. More on the design: dose 40 mg/kg.
Data set [2] concerns Mus musculus. Kind of data set: Reduction in spontaneous locomotor activity in mouse at 5 mg/kg, ip measured for 30 mins relative to control. The data set is classed as functional. Set-up: scale not given: the % may be the effect or the level left. As to conditions: route intraperitoneal.
For data set [3], the system named is Mus musculus. Kind of data set: Anticonvulsant activity in mouse assessed as protection against subcutaneous metrazol-induced seizures at <= 300 mg/kg, ip. More on the design: dose 300 mg/kg. The data set is classed as functional, organism-based.
Data set [4] has as its system Mus musculus. Kind of data set: Anticonvulsant activity in ip dosed mouse assessed as protection against maximal electroshock-induced seizures measured as lowest dose required for activity. The data set is classed as functional. As to conditions: read-out: MED. (In general: The maximal electroshock test induces tonic seizures with an electrical stimulus.)
For data set [5], the system named is Rattus norvegicus. As to the kind of experiment: Anorexic activity in Sprague-Dawley rat assessed as reduction in food intake at 10 to 40 mmol/kg, ip. The data set is classed as functional, organism-based.
The subject of data set [6] is Mus musculus. Kind of data set: Anticonvulsant activity in mouse assessed as protection against maximal electroshock-induced seizures at <= 300 mg/kg, ip. The data set is classed as functional, organism-based. More on the design: dose 300 mg/kg.
Data set [7] concerns Mus musculus. As to the kind of experiment: Anticonvulsant activity in ip dosed mouse assessed as protection against subcutaneous metrazol-induced seizures. The data set is classed as functional. As to conditions: read-out: MED.
Data set [8] deals with Mus musculus. As to the kind of experiment: Reduction in spontaneous locomotor activity in mouse at 20 mg/kg, ip measured for 30 mins relative to control. The data set is classed as functional, organism-based. More on the design: dose 20 mg/kg.
For data set [9], the system named is Rattus norvegicus. Kind of data set: Anorexic activity in ip dosed Sprague-Dawley rat assessed as dose required to reduce food intake by 50%. The data set is classed as functional.
Data set [10] can be described thus: Neurotoxicity in ip dosed mouse by rotarod test. The data set is classed as toxicity, organism-based. As to conditions: in vivo. (In general: The rotarod test checks motor coordination on a turning rod.)
In data set [11] the test system is Mus musculus. As to the kind of experiment: Anticonvulsant activity in ip dosed mouse assessed as protection against maximal electroshock-induced seizures. The data set is classed as functional.
Data set [12] in a line: Protective index, ratio of TD50 for neurotoxicity in ip dosed mouse to ED50 for anticonvulsant activity in ip dosed mouse. The data set is classed as toxicity, organism-based. As to conditions: in vivo, read-out: Ratio TD50/ED50.
Data set [13] deals with Mus musculus. Kind of data set: Stimulation of spontaneous locomotor activity in mouse at 20 mg/kg, ip measured for 30 mins relative to control. The data set is classed as functional.
Data set [14] deals with Mus musculus. As to the kind of experiment: Neurotoxicity in ip dosed mouse assessed as time to reach peak effect by rotarod test. The data set is classed as toxicity, organism-based. As to conditions: in vivo.
The subject of data set [15] is Mus musculus. As to the kind of experiment: Anticonvulsant activity in ip dosed mouse assessed as time to reach peak effect. The data set is classed as functional.
Data set [16] deals with Rattus norvegicus. As to the kind of experiment: Anorexic activity in Sprague-Dawley rat assessed as reduction in food intake at 5 to 20 mmol/kg, ip. The data set is classed as functional, organism-based.
Data set [17] can be described thus: Toxicity in ip dosed mouse assessed as lethality. The data set is classed as organism-based. As to conditions: in vivo.
For data set [18], the system named is Rattus norvegicus. Kind of data set: Anorexic activity in Sprague-Dawley rat assessed as reduction in food intake at […], ip relative to control. The data set is classed as functional. More on the design: scale not given: the % may be the effect or the level left.
The test system of data set [19] is Rattus norvegicus. As to the kind of experiment: Toxicity in Sprague-Dawley rat assessed as lethality at 20 to 40 mg/kg, ip. The data set is classed as organism-based. Set-up: dose 20-40 mg/kg, route intraperitoneal. As to conditions: in vivo.

In the case of `CC(=O)Oc1cccc(C2(O)CN3CCCCC3CO2)c1` (configuration not stated), the result with Mus musculus [1] was inactive.
`CN(C)CCCN1c2ccccc2Sc2ccc(Cl)cc21.Cl` [CHLORPROMAZINE HYDROCHLORIDE] gave an Activity in the data set with Mus musculus [2] of 83.6%.
Regarding `Cc1ccc(C2(O)CN3CCCCC3CO2)cc1.Cl` (configuration not stated), the outcome in the data set with Mus musculus [1] was Active. In addition, the result with Mus musculus [3] was inactive. Besides, in the data set with Mus musculus [4], the minimal effective dose was found to be 100 mg/kg.
With `OC1(c2ccc(Cl)cc2)CN2CCCCC2CO1` (configuration not stated), in the data set on Mus musculus [1], the result was Active. For the same compound, in the data set with Rattus norvegicus [5], the outcome was inactive.
As for `COc1cc(C2(O)CN3CCCCC3CO2)cc(OC)c1OC.Cl` (configuration not stated), in the data set on Mus musculus [6], the outcome was inactive. Besides, the minimal effective dose with Mus musculus [7] was found to be 300 mg/kg. In addition, the outcome with Mus musculus [1] was Active.
In the case of `Oc1cccc(C2CN3CCCCC3CO2)c1` (configuration not stated), the result in the data set on Mus musculus [8] was Active. For the same compound, the outcome in the data set on Mus musculus [1] was inactive.
Regarding `Cc1ccc(C2CN3CCCCC3CO2)cc1` (configuration not stated), the result in the data set with Mus musculus [6] and in the data set on Mus musculus [3] was inactive. For the same compound, the result in the data set on Mus musculus [1] was Active.
On to `COc1cccc(C2CN3CCCCC3CO2)c1` (configuration not stated), for which, in the data set on Mus musculus [1], the result was Active.
For `COc1ccc(C2(O)CN3CCCCC3CO2)cc1` (configuration not stated), the outcome with Mus musculus [6] and in the data set on Mus musculus [3] was inactive. In the data set on Mus musculus [1], the outcome was Active.
For the compound `CCNC(C)Cc1cccc(C(F)(F)F)c1.Cl` (configuration not stated) [FENFLURAMINE HYDROCHLORIDE], the Activity in the data set on Rattus norvegicus [9] was determined as 16.8 mmol/kg.
Take `CCC1(c2ccccc2)C(=O)N=C([O-])NC1=O.[Na+]` (configuration not stated) [PHENOBARBITAL SODIUM]: the TD50 (as a rule, the dose at which the toxic effect under study appears in half of the subjects) in data set [10] was found to be 333000 µmol/kg. Also, in the data set on Mus musculus [11], the ED50 (in general, the midpoint of the dose-response relation) was 85700 µmol/kg. In data set [12], the selectivity ratio is 3.88. Also, in the data set with Mus musculus [13] (route intraperitoneal), the Activity amounted to 215%.
Consider `Cl.OC1(c2cccc(C(F)(F)F)c2)CN2CCCCC2CO1` (configuration not stated), for which the Time in the data set on Mus musculus [14] and in the data set on Mus musculus [15] was 0.5 h throughout. The compound further gave a TD50 in data set [10] of 218000 µmol/kg. For the same compound, the outcome with Mus musculus [1] and in the data set on Rattus norvegicus [16] was Active. In the data set with Mus musculus [11], the ED50 was 78700 µmol/kg. Besides, the Activity with Rattus norvegicus [9] was found to be 29.6 mmol/kg. For the same compound, in [12], the selectivity ratio worked out at 2.77. Also, in the data set on Mus musculus [3], the outcome was inactive. Also, in the data set on Mus musculus [4], the minimal effective dose was found to be 30 mg/kg.
As to `Cl.FC(F)(F)c1ccc(C2CN3CCCCC3CO2)cc1` (configuration not stated), the Time with Mus musculus [14] and in the data set with Mus musculus [15] was 0.5 h in each case. In [10], this compound yielded a TD50 of 408000 µmol/kg. Further, the minimal effective dose came to 300 mg/kg with Mus musculus [7] and 30 mg/kg in the data set on Mus musculus [4]. Moreover, in the data set on Mus musculus [1], the result was Active.
Regarding `Cl.FC(F)(F)c1ccccc1C1CN2CCCCC2CO1` (configuration not stated), the Time in the data set with Mus musculus [14] and in the data set with Mus musculus [15] was 0.5 h in each case. This compound also displayed a TD50 in [10] of 716000 µmol/kg. Also, the minimal effective dose in the data set on Mus musculus [7] stood at 300 mg/kg; with Mus musculus [4] it was 30 mg/kg. Besides, the result with Mus musculus [1] was Active.
As to `O=[N+]([O-])c1ccc(C2(O)CN3CCCCC3CO2)cc1` (configuration not stated), the outcome with Mus musculus [1] was inactive.
Regarding `CC(=O)Oc1cccc(C2CN3CCCCC3CO2)c1` (configuration not stated), in the data set with Mus musculus [1], the result was inactive.
As to `Oc1ccc(C2CN3CCCCC3CO2)cc1` (configuration not stated), the result in the data set with Mus musculus [1] was Active.
As to `COc1ccc(C2CN3CCCCC3CO2)cc1OC` (configuration not stated), in the data set with Mus musculus [1], the result was Active.
Turning to `COc1ccc(C2(O)CN3CCCCC3CO2)cc1OC.Cl` (configuration not stated), the result in the data set on Mus musculus [6] was inactive. For the same compound, in the data set with Mus musculus [7], the minimal effective dose is 100 mg/kg. Also, the outcome in the data set on Mus musculus [1] was Active.
As for `Cl.OC1(c2ccccc2C(F)(F)F)CN2CCCCC2CO1` (configuration not stated), the Time in the data set on Mus musculus [14] and with Mus musculus [15] was 0.5 h throughout. Further, in data set [10], the TD50 turned out to be 547000 µmol/kg. For the same compound, the result with Mus musculus [1] was Active. In the data set with Mus musculus [3], the result was inactive. In addition, the minimal effective dose in the data set on Mus musculus [4] came to 30 mg/kg.
`Cl.OC1(c2ccccc2)CN2CCCCC2CO1` (configuration not stated): in the data set with Mus musculus [1], the outcome was Active. Further, the result in the data set on Mus musculus [3] was inactive. The minimal effective dose in the data set with Mus musculus [4] is 100 mg/kg.
Consider `OC1(c2ccc(Br)cc2)CN2CCCCC2CO1` (configuration not stated), for which the result in the data set with Mus musculus [1] was Active.
As for `Cl.OC1(c2ccc(C(F)(F)F)cc2)CN2CCCCC2CO1` (configuration not stated), the Time with Mus musculus [14] and in the data set on Mus musculus [15] was 0.5 h in each case. The outcome in the data set with Mus musculus [1] and in the data set on Mus musculus [13] was Active. In addition, the LD50 (commonly the dose at which mortality reaches 50%) in data set [17] came out at 468000 µmol/kg. Further, in the data set on Mus musculus [3], the result was inactive. Besides, the minimal effective dose in the data set with Mus musculus [4] was found to be 100 mg/kg.
With `COc1cccc(C2(O)CN3CCCCC3CO2)c1.Cl` (configuration not stated), in the data set with Mus musculus [1], the outcome was Active. Further, the outcome with Mus musculus [3] was inactive. In the data set on Mus musculus [4], the minimal effective dose was found to be 100 mg/kg.
Consider `Cl.FC(F)(F)c1cccc(C2CN3CCCCC3CO2)c1` (configuration not stated), for which the Time in the data set with Mus musculus [14] and in the data set with Mus musculus [15] was 0.5 h in each case. This compound returned a TD50 in data set [10] of 263000 µmol/kg. Moreover, the outcome in the data set on Mus musculus [1] and in the data set on Rattus norvegicus [5] was Active. For the same compound, in the data set with Mus musculus [11], the ED50 is 84600 µmol/kg. Also, in the data set with Rattus norvegicus [9], the Activity is 55.9 mmol/kg. Moreover, the selectivity ratio in [12] stood at 3.11. Moreover, the result in the data set on Mus musculus [3] was inactive. Also, the minimal effective dose with Mus musculus [4] amounted to 30 mg/kg.
`CC(=O)Nc1ccc(C2CN3CCCCC3CO2)cc1` (configuration not stated): in the data set with Mus musculus [1], the outcome was Active.
With `COc1cc(C2CN3CCCCC3CO2)cc(OC)c1OC` (configuration not stated), the outcome with Mus musculus [1] was Active.
Regarding `Fc1ccc(C2CN3CCCCC3CO2)cc1` (configuration not stated), the result in the data set with Mus musculus [6] and in the data set with Mus musculus [3] was inactive. Moreover, the result in the data set on Mus musculus [1] was Active.
Turning to `Cl.c1ccc(C2CN3CCCCC3CO2)cc1` (configuration not stated), in the data set on Mus musculus [1], the result was Active. Also, the Activity in the data set on Rattus norvegicus [9] stood at 108.4 mmol/kg. Besides, the outcome in the data set on Rattus norvegicus [5] and with Mus musculus [3] was inactive. Moreover, in the data set with Mus musculus [4], the minimal effective dose came out at 100 mg/kg.
For `Cl.OC1(c2ccc(F)cc2)CN2CCCCC2CO1` (configuration not stated), the outcome with Mus musculus [1] was Active. The outcome with Mus musculus [3] was inactive. Further, in the data set on Mus musculus [4], the minimal effective dose worked out at 100 mg/kg.
For `Cl.Clc1ccc(C2CN3CCCCC3CO2)cc1` (configuration not stated), the results for the Activity in the data set on Rattus norvegicus [18] and with Rattus norvegicus [19] were 40% and “Toxic”, respectively. Also, the result with Mus musculus [1] and in the data set on Rattus norvegicus [5] was Active.
Turning to `Brc1ccc(C2CN3CCCCC3CO2)cc1` (configuration not stated), the outcome in the data set on Mus musculus [1] was Active.
The same measure, in the same setting: the value for `COc1ccc(C2CN3CCCCC3CO2)cc1` (configuration not stated) was “Active”.
